This note sets out measurements from patent publication US11260042B2, “Pharmaceutical combination for the treatment of cancer” (ABILITY PHARMACEUTICALS S.L., priority 2017, dated 2022).

Entries after “also recorded” stand apart in the source; their conditions may differ. Read-outs that look alike come from different tables or passages of the source.

The subject of data set [1] is A549 (human lung carcinoma) cell line. Kind of data set: Cell viability (MTT) of ABTL0812 in combination with docetaxel in lung cancer. Type of data set: cell-based. The settings on record: A549, three days, FBS 0.5%, single agent. Here is the method:
Methods: A549 cells were incubated with increasing concentrations of ABTL0812 (3-300 μM), docetaxel (0.01-100 μM), or a combination of both (subIC50, i.e., 20 μM fixed concentration of ABTL812 and 0.01-100 μM docetaxel) for three days (FBS 0.5%). […] In the denominator, (Dx)1 is for D1“alone” that inhibits a system x %, and (Dx)2 is for D2“alone” that inhibits a system x %.

Data set [2] has as its system A549 (human lung carcinoma) cell line with mutated KRAS. The experiment in a line: Cell viability (MTT) of ABTL0812 in combination with paclitaxel, A549. Type of data set: cell-based. The following applies: A549, 72 hours, 0.1% FBS, single agent. Here is the method: (§1) Methods: A549 cells were incubated with increasing concentrations of ABTL0812 (3-300 μM), paclitaxel (0.003-1 μM), or a combination of both using subIC50 fixed concentration of ABTL0812 and 0.003-1 μM paclitaxel for 72 hours in DMEM with 0.1% FBS. H157, H1957 and HTB-812 cells were incubated with increasing concentrations of paclitaxel (0.001-10 μM) alone and in combination with subIC50 fixed concentration of ABTL0812 for 48 hours in DMEM with 0.1% FBS. Cell viability was evaluated in all cases by MTT assay and IC50's were calculated for paclitaxel and the combination. The concentrations of the combinations for the different cell lines were:
(§2) Finally, the Combination Index (CI), as described in the previous section, was calculated for the values of paclitaxel IC50.

The subject of data set [3] is H157 cells. Kind of data set: Cell viability (MTT) of ABTL0812 in combination with paclitaxel, H157. Type of data set: cell-based, human. The following applies: H157, 48 hours, 0.1% FBS, single agent. The protocol: as §1, §2
Data set [4] has as its system H1957 cells. The experiment in a line: Cell viability (MTT) of ABTL0812 in combination with paclitaxel, H1957. Type of data set: cell-based, human. The settings on record: H1957, 48 hours, 0.1% FBS, single agent. The protocol: as §1, §2
Data set [5] deals with A549 human lung adenocarcinoma xenograft. Type of data set: in vivo. The following applies: ABTL0812 30 mg/kg/day oral 5 times a week; docetaxel 5 mg/kg i.p. once a week. The protocol:
Methods: Mice were injected with 5×10^6 A549 cells in each flank to induce tumor formation. […] ABTL0812 was administered by the oral route at 30 mg/kg/day, 5 times a week. Docetaxel 5 mg/kg was administered intra-peritoneally once a week (Coxon et al. 2012). Tumor volume and body weight were monitorized 3 times a week.

Data set [6] has as its system MiaPaca2 human pancreatic cancer xenograft. Type of data set: in vivo. The settings on record: ABTL0812 120 mg/kg oral; P/Gm 15 mg/kg and 60 mg/kg two times per week; 4 weeks. Here is the method:
Methods: Athymic female nude mice (n=9 per group) were injected via subcutaneous route with 0.1 ml of MiaPaca2 cells (5×10^6 cell/ml in serum free DMEM media in 1:1 with matrigel) in one flank. Tumor Volumes (TV) were measured as length×width^2×½ three times a week.

Data set [7] has the same test system. The experiment in a line: Human pancreatic xenograft (MiaPaca-2), gemcitabine and Nab-paclitaxel/gemcitabine. Type of data set: in vivo, Athymic Nude-Foxn1nu female mice. The settings on record: ABTL0812 120 mg/kg oral 5 times a week; gemcitabine 60 mg/kg, Nab-Paclitaxel 5 mg/kg i.p. 2 times a week (suboptimal chemotherapy dose). Here is the method:
It is important to change the site of injection to avoid intestinal necrosis and keep Nab-Paclitaxel and gemcitabine injections as far as possible one from the other in mice abdomen. • Gemcitabine+ABTL0812 (n=10): treated orally with 120 mg/kg of ABTL0812 in 200 μl of distilled water+5% glycerol, 5 times a week and with 60 mg/kg of gemcitabine administered i.p in 100 μl of sterile water, 2 times a week. ABTL0812 was always administered before chemotherapy with the aim of reducing the stress derived from the i.p. injection, that is normally applied as the last administration. • Gemcitabine+Nab-Paclitaxel+ABTL0812 (n=8): treated orally with 120 mg/kg of ABTL0812 in 200 μl of distilled water+5% glycerol, 5 times a week, with 60 mg/kg of gemcitabine administered i.p. in 100 μl of sterile water, 2 times a week and with 5 mg/kg of Nab-Paclitaxel administered i.p. in 230 μl of 0.9% NaCl solution 2 times a week. As in the gemcitabine+Nab-Paclitaxel group, injections where administered in separated areas of the abdomen. […]
Treatment efficacy was assessed by measuring tumor volume three days a week. Additionally, total body weight was monitored three days a week to test the toxicity associated with the treatments in addition to visual examination of signs indicative of clinicopathological symptoms. […]

In data set [8] the test system is SH-SY5Y human neuroblastoma xenograft. It is filed as in vivo, Nu/nu female mice. Here is the method:
Methods: Immunodeficient athymic NMRI-Foxn1^nu/Foxn1^nu nude mice were subcutaneously injected with SH-SY5Y cells. This cell line was genetically modified to express luciferase, which would allow the in vivo study not only of tumor size, but also of metastasis formation. When tumors reached an average volume of 80 mm^3, mice were randomly distributed into different treatment groups. ABTL0812 was administered orally at 120 mg/kg daily. In parallel we used cisplatin, a drug included in the chemotherapy induction phase for the treatment of neuroblastoma. Cisplatin was administered at 2 mg/kg i.p. twice a week (Wang et al. 2010). Additionally, we studied the effect of combining ABTL0812 with cisplatin at the indicated doses.
C. Metastasis formation. In order to investigate the effect of ABTL0812 in metastasis formation we used a SH-SY5Y cell line transduced with a luciferase reporter vector. As described above, mice bearing xenograft tumors derived from this cell line were treated with ABTL0812, cisplatin or the combination of both drugs. After ten days of treatment animals were sacrificed and metastasis were assessed ex vivo by monitoring luciferase-expressing cells in lung and liver.

The subject of data set [9] is human endometrial cancer patient derived xenograft. The experiment in a line: Patient-derived xenograft (PDX) endometrial model, paclitaxel and carboplatin. (In general: In xenograft studies the graft and the host belong to different species.)
Experimental: After tumors grew up to 100 mm^3, tumors were extracted from mice, minced in 2 mm long pieces and re-implanted in one flank of 40 mice. When average tumor volume reached 100 mm^3, mice were randomly distributed into treatment groups, and dosed as follows: vehicle (n=11); ABTL0812: 120 mg/kg orally, 5 times per week (n=10); paclitaxel/carboplatin (P/C): P:50 mg/kg/C:15 mg/kg intraperitoneal (n=12); and ABTL0812+P/C: ABTL0812 (n=10) was administered always two days prior to the first P/C administration and two days after, maintaining 4 doses of ABTL0812 and one of P/C per week; doses were the same as when given separately.
The effectiveness of the therapy was measured by the impact of the treatment on the tumor growth, which was measured by its volume. The health state of the animals and the drug-induced toxicity were determined by the animal body weight during the study. Tumor size evolution and tumor weight were evaluated by two-way ANOVA (day by day analysis).
In order to simulate the Phase II clinical trial design, where ABTL0812 will be administered chronically after P/C cycles, P/C treatment was removed from P/C and ABTL0812+P/C groups, maintaining ABTL0812 chronically. Tumor volume was measure after P/C treatment removal during an extra 17 days.

As usually defined, the IC50 is the concentration needed to halve the response being measured. Take `CCCCC/C=C\C/C=C\CCCCCCC(O)C(=O)O` (centres unmarked) [ABTL0812, COOH—CHOH—(CH2)6—(CH═CH—CH2)2—(CH2)3—CH3]: the IC50 in data set [1] is 42 µM; in data set [2] it was 49 µM; in data set [3] it was 23 µM; in data set [4] it was 43 µM. In addition, the tumor volume result in [5] was “significantly reduced tumor volume when compared to control animals”; in [6], “positive effect within the first 15 days after treatment, showing similar tumor volume to vehicle group in the following days”; in data set [7] it was “better response in tumor volume evolution than Gem+Nab-Pac group during the first 20 days of treatment; also recorded: better response in tumor volume evolution than Gem group during the whole study”. Also, the “tumor progression (size, weight)” value in data set [8] (ABTL0812 120 mg/kg oral daily, cisplatin 2 mg/kg i.p. twice a week) was “inhibits tumor progression with an efficacy that is similar to cisplatin”. In addition, the Hematocrit in data set [8] (mouse, in vivo) is listed as 40.2 ± 1.4%. For the same molecule, the RBC in data set [8] (mouse, in vivo) is 7.9 ± 0.4 ×10^6/μL. Also, the WBC in data set [8] (mouse, in vivo) was 3.9 ± 1.3 ×10^3/μL. Moreover, in data set [8] (mouse, in vivo), the “hematological safety” value is “no impact on blood hematocrit”. Moreover, in data set [8] (mouse, in vivo), the “loss of body weight (transient)” value was below 10%. Further, the “metastasis formation in lung and liver” value in data set [8] (ten days of treatment, luciferase-expressing cells ex vivo) is listed as “inhibited metastasis formation”. In addition, the “tumor growth after P/C removal” value in [9] (after day 47, P/C stopped, ABTL0812 maintained chronically, extra 17 days) is recorded as “tumor growth inhibition very similar to P/C”. Further, the “tumor growth (volume)” value in data set [9] (first 47 days, ABTL0812 120 mg/kg orally, P 50 mg/kg / C 15 mg/kg i.p.) was “same efficacy as P/C”. Also, the “total body weight, toxicity” value in data set [9] (mouse, in vivo) is “without any signs of relevant toxicity; also recorded: Body weight reduction was observed partially only in ABTL0812 group at day 15”.
